The target of experiment [1] is T1, recombinant human ACC1 (rhACC1) (Homo sapiens, UniProt Q13085, DEL44-44).
T1 construct: recombinant baculovirus containing full length human ACC1 cDNA; made in house; host or cells: SF9 insect cells (baculovirus)
In words: recombinant hACC1 Transcreener assay (direct inhibition of ACC1 activity). Format: biochemical. To be noted: Transcreener ADP detection FP assay, 50 μM ATP, 30 μM acetyl-CoA, 120 min at 25° C. In outline:
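Full-length human ACC1 from baculovirus-infected SF9 cells, dephosphorylated with lambda phosphatase. Reaction in 50 mM HEPES pH 7.2 with 30 μM acetyl-CoA, 50 μM ATP, 10 mM KHCO3, 120 min at 25° C; ADP detected by Transcreener fluorescence polarisation.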

Experiment [2] addresses T2, recombinant human ACC2 (rhACC2) (Homo sapiens, UniProt O00763, V2141I).
T2 construct: a full length Cytomax clone of ACC2 was purchased from Cambridge Bioscience Limited; made in house; host or cells: CHO cells (tetracycline-induced, pcDNA5 FRT TO-TOPO)
Briefly: recombinant hACC2 Transcreener assay (direct inhibition of ACC2 activity). Format: biochemical. To be noted: Transcreener ADP detection FP assay, 50 μM ATP, 30 μM acetyl-CoA, 50 min at 25° C. The gist of the method: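 Full-length human ACC2 was expressed in CHO cells and avidin-purified. ADP formation was measured by Transcreener FP in 50 mM HEPES pH 7.2 with 30 μM acetyl-CoA, 50 μM ATP, 8 mM KHCO3 and 5 mM citrate. Reactions ran 50 min at 25 °C with 1% DMSO, then 1 h with stop/detect reagent.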

The IC50 is the point on the concentration scale where inhibition reaches its midpoint.

Molecules are shown by their SMILES.

T2 sequence (O00763 whole entry V2141I): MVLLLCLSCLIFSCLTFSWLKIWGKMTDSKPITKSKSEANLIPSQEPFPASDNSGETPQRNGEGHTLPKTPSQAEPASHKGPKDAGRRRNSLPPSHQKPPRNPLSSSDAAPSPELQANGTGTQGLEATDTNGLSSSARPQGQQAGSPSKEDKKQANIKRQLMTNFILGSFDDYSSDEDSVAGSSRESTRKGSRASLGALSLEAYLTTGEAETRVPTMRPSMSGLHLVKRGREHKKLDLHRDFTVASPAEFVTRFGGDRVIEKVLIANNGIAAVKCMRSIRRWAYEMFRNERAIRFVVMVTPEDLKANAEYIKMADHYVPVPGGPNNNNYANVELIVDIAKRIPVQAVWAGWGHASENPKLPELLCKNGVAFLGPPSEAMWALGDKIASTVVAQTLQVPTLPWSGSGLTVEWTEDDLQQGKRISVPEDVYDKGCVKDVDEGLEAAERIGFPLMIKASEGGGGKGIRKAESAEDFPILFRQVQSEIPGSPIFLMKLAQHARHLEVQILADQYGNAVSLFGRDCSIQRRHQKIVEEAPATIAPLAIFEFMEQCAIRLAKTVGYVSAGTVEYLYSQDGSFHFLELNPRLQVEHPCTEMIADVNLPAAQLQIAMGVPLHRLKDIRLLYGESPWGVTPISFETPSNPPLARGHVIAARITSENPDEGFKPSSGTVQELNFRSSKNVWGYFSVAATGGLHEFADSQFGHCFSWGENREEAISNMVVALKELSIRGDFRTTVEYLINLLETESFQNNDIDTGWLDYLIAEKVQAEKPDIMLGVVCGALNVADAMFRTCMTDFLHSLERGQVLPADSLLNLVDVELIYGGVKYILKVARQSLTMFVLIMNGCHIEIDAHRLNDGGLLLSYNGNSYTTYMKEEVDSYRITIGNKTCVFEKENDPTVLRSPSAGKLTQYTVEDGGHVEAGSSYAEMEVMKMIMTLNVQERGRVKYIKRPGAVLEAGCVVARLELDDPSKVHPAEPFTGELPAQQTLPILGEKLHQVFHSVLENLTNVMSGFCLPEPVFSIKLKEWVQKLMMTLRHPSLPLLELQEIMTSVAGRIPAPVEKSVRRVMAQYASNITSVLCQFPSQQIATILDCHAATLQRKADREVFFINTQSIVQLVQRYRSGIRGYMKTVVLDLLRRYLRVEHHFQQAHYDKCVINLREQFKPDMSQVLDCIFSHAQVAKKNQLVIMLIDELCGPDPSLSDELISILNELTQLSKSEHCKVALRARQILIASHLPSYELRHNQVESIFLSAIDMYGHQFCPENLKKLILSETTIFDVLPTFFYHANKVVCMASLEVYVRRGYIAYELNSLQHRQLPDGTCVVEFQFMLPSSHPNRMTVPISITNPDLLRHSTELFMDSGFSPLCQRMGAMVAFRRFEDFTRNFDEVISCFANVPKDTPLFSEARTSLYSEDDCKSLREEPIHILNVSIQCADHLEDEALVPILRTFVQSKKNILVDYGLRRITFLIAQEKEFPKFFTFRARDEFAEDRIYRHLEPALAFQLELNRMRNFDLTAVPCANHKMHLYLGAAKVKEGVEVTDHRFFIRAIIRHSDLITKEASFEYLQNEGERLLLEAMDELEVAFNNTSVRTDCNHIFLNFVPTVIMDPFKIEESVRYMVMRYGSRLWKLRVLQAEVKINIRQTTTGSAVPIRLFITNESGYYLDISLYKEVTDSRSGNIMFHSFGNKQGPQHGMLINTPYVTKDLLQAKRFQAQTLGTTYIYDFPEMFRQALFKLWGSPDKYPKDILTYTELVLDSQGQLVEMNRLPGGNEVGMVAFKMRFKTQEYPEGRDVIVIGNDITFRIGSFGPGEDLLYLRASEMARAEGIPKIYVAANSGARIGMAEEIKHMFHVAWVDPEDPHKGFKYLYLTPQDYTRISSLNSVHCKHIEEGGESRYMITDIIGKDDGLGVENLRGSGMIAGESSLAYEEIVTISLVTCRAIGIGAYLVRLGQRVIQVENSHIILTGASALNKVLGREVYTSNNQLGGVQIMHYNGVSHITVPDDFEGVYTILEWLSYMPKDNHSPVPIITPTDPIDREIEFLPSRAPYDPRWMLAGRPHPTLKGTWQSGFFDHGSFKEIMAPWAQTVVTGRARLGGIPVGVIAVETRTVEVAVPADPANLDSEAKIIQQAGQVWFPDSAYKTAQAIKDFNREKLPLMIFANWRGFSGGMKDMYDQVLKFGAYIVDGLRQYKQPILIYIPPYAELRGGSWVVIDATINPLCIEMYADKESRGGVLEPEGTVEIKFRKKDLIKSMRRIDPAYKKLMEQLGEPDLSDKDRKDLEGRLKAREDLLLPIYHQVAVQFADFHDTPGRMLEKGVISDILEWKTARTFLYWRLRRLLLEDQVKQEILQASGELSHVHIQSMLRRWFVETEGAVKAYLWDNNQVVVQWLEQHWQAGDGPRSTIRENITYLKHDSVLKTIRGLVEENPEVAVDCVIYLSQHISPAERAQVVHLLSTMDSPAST

Turning to `CC(C)n1ncc2c1C(=O)CC1(CCN(C(=O)c3ccc4cnccc4c3O)CC1)C2` [Example 2A-72], the values for the half-maximal inhibitory concentration (IC50) in experiment [1] and in experiment [2] were 599 nM and 290 nM, respectively.

On to `CC(C)n1nc(C#N)c2c1C(=O)CC1(CCN(C(=O)c3ccc4[nH]cnc4c3)CC1)C2` [Example 8A-1, 1′-(1H-benzo[d]imidazole-5-carbonyl)-1-isopropyl-7-oxo-1,4,6,7-tetrahydrospiro[indazole-5,4′-piperidine]-3-carbonitrile], for which the figures for the IC50 in experiment [1] and in experiment [2] were 7620 nM and 1660 nM, respectively.

Regarding `Cc1nc2ccc(C(=O)N3CCC4(CC3)CC(=O)c3c(cnn3C(C)(C)C)C4)cc2[nH]1` [Example 2A-21], the IC50 in experiment [1] came out at 93.3 nM; in experiment [2], 32.7 nM.

With `CC(C)(C)n1ncc2c1C(=O)CC1(CCN(C(=O)c3c[nH]c4ncccc34)CC1)C2` [Example 11A-19], the results for the 50% inhibitory concentration (IC50) in experiment [1] and in experiment [2] were 242 nM and 71.6 nM, respectively.

As for `CC(C)(C)n1ncc2c1C(=O)CC1(CCN(C(=O)c3ccc4c(=O)[nH]ccc4c3)CC1)C2` [Example 2A-22], the values for the IC50 in experiment [1] and in experiment [2] were 1890 nM and 334 nM, respectively.

On to `CC(C)n1ncc2c1C(=O)CC1(CCN(C(=O)c3cc4ccncc4[nH]3)CC1)C2` [Example 2A-64], for which the half-inhibitory concentration (IC50) in experiment [1] was 229 nM; in experiment [2], 253 nM.

As to `CC(C)n1ncc2c1C(=O)CC1(CCN(C(=O)c3ccc4c(cnn4C)c3)CC1)C2` [Example 2A-11], the IC50 was 261 nM in experiment [1] and 33.5 nM in experiment [2].

On to `CC(C)n1ncc2c1C(=O)C(C)C1(CCN(C(=O)c3ccc4[nH]ncc4c3)CC1)C2` (single isomer, unassigned; (-)) [Example 5A-2, (−)-1′-(1H-indazole-5-carbonyl)-1-isopropyl-6-methyl-4,6-dihydrospiro[indazole-5,4′-piperidin]-7(1H)-one], for which the IC50 in experiment [1] was found to be 175 nM; in experiment [2], 80.7 nM.

Take `CC(C)n1ncc2c1C(=O)CC1(CCN(C(=O)c3cnc4[nH]ncc4c3)CC1)C2` [Example 2A-1, 1-Isopropyl-1′-(1H-pyrazolo[3,4-b]pyridine-5-carbonyl)-4,6-dihydrospiro[indazole-5,4′-piperidin]-7(1H)-one]: the IC50 was 282 nM in experiment [1] and 69.7 nM in experiment [2].

`CC(C)n1ncc2c1C(=O)CC1(CCN(C(=O)c3cc4cccn4cn3)CC1)C2` [Example 11A-47]: the IC50 in experiment [1] worked out at 850 nM; in experiment [2] it was 373 nM.

As for `CC(C)(C)n1ncc2c1C(=O)CC1(CCN(C(=O)c3cnc4cn[nH]c4c3)CC1)C2` [Example 11A-58], the IC50 stood at 131 nM in experiment [1] and 73.6 nM in experiment [2].

For `CC(C)n1ncc2c1C(=O)CC1(CCN(C(=O)c3ccc(-c4ncc[nH]4)cc3)CC1)C2` [Example 11A-1, 1′-(4-(1H-imidazol-2-yl)benzoyl)-1-isopropyl-4,6-dihydrospiro[indazole-5,4′-piperidin]-7(1H)-one], the IC50 in experiment [1] worked out at 147 nM; in experiment [2] it was 31.8 nM.

For the molecule `CC(C)(C)n1ncc2c1C(=O)CC1(CCN(C(=O)c3cc(F)c4nc[nH]c4c3)CC1)C2` [Example 2A-51], the IC50 stood at 72.7 nM in experiment [1] and 29.9 nM in experiment [2].

With `CC(C)(C)n1nc(Br)c2c1C(=O)CC1(CCN(C(=O)c3cc(Br)c4[nH]c(=O)[nH]c4c3)CC1)C2` [Example 13A-1, 3-bromo-1′-(7-bromo-2-oxo-2,3-dihydro-1H-benzo[d]imidazole-5-carbonyl)-1-tert-butyl-4,6-dihydrospiro[indazole-5,4′-piperidin]-7(1H)-one], the IC50 in experiment [1] was determined as 264 nM; in experiment [2] it was 316 nM.

In the case of `CC(C)n1ncc2c1C(=O)CC1(CCN(C(=O)c3ccc4c(c3)CC(=O)N4)CC1)C2` [Example 2A-27], the figures for the IC50 in experiment [1] and in experiment [2] were 308 nM and 91.8 nM, respectively.

As for `Cc1nc2c(Cl)cc(C(=O)N3CCC4(CC3)CC(=O)c3c(cnn3C(C)(C)C)C4)cc2[nH]1` [Example 2A-53], the IC50 in experiment [1] came out at 39.6 nM; in experiment [2], 17.2 nM.

As to `Cc1nc2c(Cl)cc(C(=O)N3CCC4(CC3)CC(=O)c3c(cnn3C(C)C)C4)cc2[nH]1` [Example 2A-52], the IC50 in experiment [1] was determined as 54.2 nM; in experiment [2], 19.3 nM.

Regarding `CC(C)n1ncc2c1C(=O)CC1(CCN(C(=O)c3cc(Cl)c4[nH]c(=O)[nH]c4c3)CC1)C2` [Example 2A-57], the half-inhibitory concentration (IC50) worked out at 66.5 nM in experiment [1] and 20.8 nM in experiment [2].

As to `CC(C)(C)n1ncc2c1C(=O)CC1(CCN(C(=O)c3cc(-c4cccnc4)[nH]n3)CC1)C2` [Example 11A-29], the IC50 stood at 151 nM in experiment [1] and 64.5 nM in experiment [2].

Turning to `Cc1nn(C)c(C(=O)N2CCC3(CC2)CC(=O)c2c(cnn2C(C)(C)C)C3)c1O` [Example 11A-25], the values for the concentration for half-maximal inhibition (IC50) in experiment [1] and in experiment [2] were 331 nM and 745 nM, respectively.

With `Cc1cc(C(=O)N2CCC3(CC2)CC(=O)c2c(cnn2C(C)C)C3)c(N)c(C)n1` [Example 11A-2], the IC50 in experiment [1] amounted to 1480 nM; in experiment [2] it was 658 nM.

`CC(C)(C)n1ncc2c1C(=O)CC1(CCN(C(=O)c3cnc4[nH]ncc4c3)CC1)C2` [Example 2A-41]: the results for the IC50 in experiment [1] and in experiment [2] were 176 nM and 90 nM, respectively.

As to `CC(C)(C)n1ncc2c1C(=O)CC1(CCN(C(=O)c3cccc(-c4cc[nH]n4)c3)CC1)C2` [Example 11A-23], the IC50 in experiment [1] was found to be 87.1 nM; in experiment [2], 20.4 nM.

Turning to `CC(C)n1ncc2c1C(=O)CC1(CCN(C(=O)c3ccc4cnn(C)c4c3)CC1)C2` [Example 2A-10], the values for the IC50 in experiment [1] and in experiment [2] were 188 nM and 29.2 nM, respectively.

On to `CC(C)n1ncc2c1C(=O)CC1(CCN(C(=O)c3ccc4[nH]c(=O)[nH]c4c3)CC1)C2` [Example 2A-33], for which the 50% inhibitory concentration (IC50) in experiment [1] turned out to be 53.7 nM; in experiment [2], 14.5 nM.

For `CC(C)n1ncc2c1C(=O)CC1(CCN(C(=O)c3cc(F)c4[nH]ncc4c3)CC1)C2` [Example 2A-37], the IC50 was 87.4 nM in experiment [1] and 34.5 nM in experiment [2].

As to `CC(C)n1ncc2c1C(=O)CC1(CCN(C(=O)c3ccn4ccnc4c3)CC1)C2` [Example 11A-52], the IC50 in experiment [1] came out at 550 nM; in experiment [2], 176 nM.

Regarding `Cc1cc(N(C)C)ncc1C(=O)N1CCC2(CC1)CC(=O)c1c(cnn1C(C)C)C2` [Example 2A-18], the IC50 turned out to be 1010 nM in experiment [1] and 458 nM in experiment [2].

Take `CC(C)n1ncc2c1C(=O)C(C)C1(CCN(C(=O)c3ccc4[nH]ncc4c3)CC1)C2` (racemic) [Example 4A-1, 1′-(1H-indazole-5-carbonyl)-1-isopropyl-6-methyl-4,6-dihydrospiro[indazole-5,4′-piperidin]-7(1H)-one]: the IC50 in experiment [1] is 399 nM; in experiment [2] it was 125 nM.

Consider `CC(C)n1ncc2c1C(=O)CC1(CCN(C(=O)c3ccc4[nH]cnc4n3)CC1)C2` [Example 11A-65], for which the IC50 in experiment [1] turned out to be 1080 nM; in experiment [2], 388 nM.

As for `CC(=O)Nc1cccc(C(=O)N2CCC3(CC2)CC(=O)c2c(cnn2C(C)C)C3)n1` [Example 2A-62], the IC50 in experiment [1] worked out at 4210 nM; in experiment [2] it was 1280 nM.

`CC(C)n1ncc2c1C(=O)CC1(CCN(C(=O)c3cc4[nH]ccn4n3)CC1)C2` [Example 2A-67]: the IC50 turned out to be 799 nM in experiment [1] and 653 nM in experiment [2].

Regarding `CNc1nc(C)ccc1C(=O)N1CCC2(CC1)CC(=O)c1c(cnn1C(C)(C)C)C2` [Example 11A-30], the IC50 in experiment [1] came out at 224 nM; in experiment [2] it was 106 nM.

As for `CC(C)n1ncc2c1C(=O)CC1(CCN(C(=O)c3cnc4ccccc4n3)CC1)C2` [Example 2A-61], the values for the IC50 in experiment [1] and in experiment [2] were 2320 nM and 2190 nM, respectively.

Consider `CC(C)n1ncc2c1C(=O)CC1(CCN(C(=O)c3ccc(-n4cncn4)cc3)CC1)C2` [Example 11A-54], for which the IC50 in experiment [1] turned out to be 1500 nM; in experiment [2], 295 nM.

As for `CC(C)(C)n1nc(C#N)c2c1C(=O)CC1(CCN(C(=O)c3ccc4[nH]ncc4c3)CC1)C2` [Example 2A-78], the IC50 in experiment [1] was determined as 3840 nM; in experiment [2], 1270 nM.

The record behind these values is patent publication US9139587B2, “N1-pyrazolospiroketone acetyl-CoA carboxylase inhibitors” (Pfizer Inc., priority 2009, dated 2015).
